Assay results: ChEMBL document CHEMBL1201862, “PubChem BioAssay data set” (2004)
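Assay format: 96-well plates, 48-hour exposure. GI50 = concentration required for 50% inhibition of growth.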 Activity calls are given as the source filed them. No stated cut-off is given here; in the data, active = GI50 up to about 1.1 µM and inactive = higher.

Tests used:
Test in all cases: growth of human tumour cells (NCI), 48 h
[1] = tested on: SK-MEL-5
[2] = tested on: TK-10
[3] = tested on: U-251
[4] = tested on: SK-MEL-2
[5] = tested on: UACC-257
[6] = tested on: UACC-62
[7] = tested on: SF-539
[8] = tested on: OVCAR-3
[9] = tested on: A549
[10] = tested on: RPMI-8226
[11] = tested on: SNB-75
[12] = tested on: RXF 393
[13] = tested on: SW-620
[14] = tested on: KM12
[15] = tested on: HL-60
[16] = tested on: COLO 205
[17] = tested on: UO-31
[18] = tested on: OVCAR-5

Structure (SMILES)	GI50 [1]	GI50 [2]	GI50 [3]	GI50 [4]	GI50 [5]	GI50 [6]	GI50 [7]	GI50 [8]	GI50 [9]	GI50 [10]	GI50 [11]	GI50 [12]	GI50 [13]	GI50 [14]	GI50 [15]	GI50 [16]	GI50 [17]	GI50 [18]
Cc1ccc(S(=O)(=O)NC2(C=O)CCCC3CCCCC32)cc1 (stereo not drawn)	> 100 µM (inactive)	> 100 µM (inactive)	> 100 µM (inactive)	> 100 µM (inactive)	> 100 µM (inactive)	> 100 µM (inactive)	> 100 µM (inactive)	> 100 µM (inactive)	> 100 µM (inactive)	> 100 µM (inactive)	> 100 µM (inactive)	> 100 µM (inactive)	> 100 µM (inactive)	> 100 µM (inactive)	> 100 µM (inactive)	> 100 µM (inactive)	> 100 µM (inactive)	
CCC(CC)NC1=C(NC(C)=O)C(=O)c2ccccc2C1=O	> 50 µM (inactive)	> 50 µM (inactive)	> 50 µM (inactive)	> 50 µM (inactive)	> 50 µM (inactive)	> 50 µM (inactive)	> 50 µM (inactive)	> 50 µM (inactive)	> 50 µM (inactive)		> 50 µM (inactive)	> 50 µM (inactive)	> 50 µM (inactive)	> 50 µM (inactive)	> 50 µM (inactive)	> 50 µM (inactive)	> 50 µM (inactive)	
C=CCCC(C)N(C(=O)OC(C)(C)C)S(=O)(=O)c1ccc(C)cc1 (stereo not drawn)		> 100 µM (inactive)	> 100 µM (inactive)	> 100 µM (inactive)	> 100 µM (inactive)	77.4 µM (inactive)	> 100 µM (inactive)	> 100 µM (inactive)	> 100 µM (inactive)	> 100 µM (inactive)	> 100 µM (inactive)		> 100 µM (inactive)	> 100 µM (inactive)	> 100 µM (inactive)	> 100 µM (inactive)	> 100 µM (inactive)	> 100 µM (inactive)
NC(CCCC(N)P(=O)(O)c1ccccc1)P(=O)(O)c1ccccc1 (stereo not drawn)		> 261 µM (inactive)	> 261 µM (inactive)	> 261 µM (inactive)	> 261 µM (inactive)	> 261 µM (inactive)	> 261 µM (inactive)	> 261 µM (inactive)	> 261 µM (inactive)	> 261 µM (inactive)	> 261 µM (inactive)	> 261 µM (inactive)	> 261 µM (inactive)	> 261 µM (inactive)	> 261 µM (inactive)	> 261 µM (inactive)	> 261 µM (inactive)	
Oc1nc(CC(O)c2ccc(Cl)c(Cl)c2)cc(-c2ccccc2)n1 (stereo not drawn)	37.8 µM (inactive)	24.8 µM (inactive)	> 100 µM (inactive)	26.1 µM (inactive)	36.1 µM (inactive)	45.5 µM (inactive)	> 100 µM (inactive)	48.8 µM (inactive)	27.1 µM (inactive)		33 µM (inactive)	41.1 µM (inactive)	> 100 µM (inactive)	69.3 µM (inactive)	25.1 µM (inactive)	17.3 µM (inactive)	26.2 µM (inactive)	11.2 µM (inactive)
CCOC(=O)/C(=C/c1ccc(N(C)C)cc1)N(CC)CC	> 10 µM (inactive)	> 100 µM (inactive)	> 100 µM (inactive)	58.2 µM (inactive)	35.8 µM (inactive)	74.5 µM (inactive)	> 100 µM (inactive)	24.5 µM (inactive)	48.1 µM (inactive)	26.1 µM (inactive)			44 µM (inactive)	79.8 µM (inactive)	27.2 µM (inactive)	> 100 µM (inactive)	68.5 µM (inactive)	> 100 µM (inactive)
CCN1CCC(O)(/C=C/c2ccccc2)C(C(=O)/C=C/c2ccccc2)C1 (stereo not drawn)	3.22 µM (inactive)	2.61 µM (inactive)	2.15 µM (inactive)	2.65 µM (inactive)	1.98 µM (inactive)	1.71 µM (inactive)	1.91 µM (inactive)	3.1 µM (inactive)	4.86 µM (inactive)		6.4 µM (inactive)	1.67 µM (inactive)	1.69 µM (inactive)	1.8 µM (inactive)	1.64 µM (inactive)	1.77 µM (inactive)	10.1 µM (inactive)	3.06 µM (inactive)
O=C1C(=O)C2(CC1S(=O)(=O)c1ccccc1)c1ccccc1-c1ccccc12 (stereo not drawn)	14.6 µM (inactive)	25.8 µM (inactive)	18.6 µM (inactive)	18.1 µM (inactive)	17.8 µM (inactive)	16.6 µM (inactive)		> 10 µM (inactive)	24.7 µM (inactive)	26.4 µM (inactive)	37.3 µM (inactive)	18.7 µM (inactive)	34.6 µM (inactive)	19.2 µM (inactive)	27.9 µM (inactive)	12.7 µM (inactive)	19.7 µM (inactive)	23 µM (inactive)
COC(=O)C1=C(C)N(NC(=O)Nc2ccccc2)C2(N)N(NC(=O)Nc3ccccc3)C(C)=C(C(=O)OC)C12C(=O)OC (stereo not drawn)		69.3 µM (inactive)	43.3 µM (inactive)	36 µM (inactive)	16.4 µM (inactive)	41.3 µM (inactive)		54.2 µM (inactive)	> 100 µM (inactive)	26.8 µM (inactive)	36.1 µM (inactive)	75.9 µM (inactive)	63.4 µM (inactive)			34.7 µM (inactive)	> 100 µM (inactive)	> 100 µM (inactive)
COc1ccc(NC(=O)CC(=O)N/N=C/c2ccc(N(CCC#N)S(C)(=O)=O)cc2)cc1	> 100 µM (inactive)	> 100 µM (inactive)	> 100 µM (inactive)	> 100 µM (inactive)		> 100 µM (inactive)	> 100 µM (inactive)	> 100 µM (inactive)	> 100 µM (inactive)	> 100 µM (inactive)	> 100 µM (inactive)	> 100 µM (inactive)	> 100 µM (inactive)	> 100 µM (inactive)		> 100 µM (inactive)	> 100 µM (inactive)	> 100 µM (inactive)
CC(=O)O[C@]12CCCCC1C1(O)C(O)CCCC[C@H]12 (stereo partly drawn)	> 100 µM (inactive)	> 100 µM (inactive)	> 100 µM (inactive)	> 100 µM (inactive)	> 100 µM (inactive)	> 100 µM (inactive)			> 100 µM (inactive)	> 100 µM (inactive)	29.6 µM (inactive)	> 100 µM (inactive)	> 100 µM (inactive)	> 100 µM (inactive)	> 100 µM (inactive)	> 100 µM (inactive)	> 100 µM (inactive)	
O=C1c2ccccc2C(=O)N1CCN(CCN1C(=O)c2ccccc2C1=O)Cn1cccn1	> 100 µM (inactive)	> 100 µM (inactive)	> 100 µM (inactive)	> 100 µM (inactive)	> 100 µM (inactive)	28.2 µM (inactive)		> 100 µM (inactive)	> 100 µM (inactive)	29.2 µM (inactive)	87.3 µM (inactive)	> 100 µM (inactive)	41.8 µM (inactive)	> 100 µM (inactive)	27.4 µM (inactive)	> 100 µM (inactive)	> 100 µM (inactive)	
CCc1c(-c2coc(CC/C(C)=C/c3ccccc3)n2)oc(OC)c(C)c1=O	4.12 µM (inactive)	> 100 µM (inactive)	29 µM (inactive)	60.1 µM (inactive)	> 100 µM (inactive)	17.6 µM (inactive)	28 µM (inactive)	45.2 µM (inactive)		11.7 µM (inactive)	49.4 µM (inactive)		9.25 µM (inactive)	78.9 µM (inactive)	5.13 µM (inactive)	21.5 µM (inactive)	5.35 µM (inactive)	> 100 µM (inactive)
Cc1cc(NS(=O)(=O)c2ccc(Nc3c4ccccc4nc4c(C(=O)NCCN(C)C)cccc34)cc2)no1	2.49 µM (inactive)	35.1 µM (inactive)	2.3 µM (inactive)	6.43 µM (inactive)		2.55 µM (inactive)	2.12 µM (inactive)		3.29 µM (inactive)		4.09 µM (inactive)	5.6 µM (inactive)	2.52 µM (inactive)	9.25 µM (inactive)	0.152 µM (active)	6.12 µM (inactive)		17.9 µM (inactive)
C=CC1(C)CCC(C(C)C(=O)C(C=C(C)C)OC(C)=O)C12C(=O)Oc1ccccc1C2=O (stereo not drawn)		> 100 µM (inactive)	38 µM (inactive)	32.7 µM (inactive)	35 µM (inactive)	49 µM (inactive)	> 100 µM (inactive)	38.9 µM (inactive)	35.7 µM (inactive)	23.7 µM (inactive)	52.5 µM (inactive)	26.7 µM (inactive)	63.8 µM (inactive)	44.8 µM (inactive)	19.7 µM (inactive)	29.4 µM (inactive)	34.4 µM (inactive)	
COC(=O)C1[C@@H](C(=O)OC)C12C=Cc1ccccc1C=C2 (stereo partly drawn)	> 100 µM (inactive)	> 100 µM (inactive)	> 100 µM (inactive)	> 100 µM (inactive)	> 100 µM (inactive)	> 100 µM (inactive)	> 100 µM (inactive)	> 100 µM (inactive)	> 100 µM (inactive)	> 100 µM (inactive)		> 100 µM (inactive)	> 100 µM (inactive)	> 100 µM (inactive)	> 100 µM (inactive)	> 100 µM (inactive)	> 100 µM (inactive)	> 100 µM (inactive)
COC(=O)C1C(=O)O[C@@H](c2ccc(OC)cc2OC)C1C(=O)OC (stereo partly drawn)	> 100 µM (inactive)	> 100 µM (inactive)	> 100 µM (inactive)		> 100 µM (inactive)	> 100 µM (inactive)	> 100 µM (inactive)	> 100 µM (inactive)	> 100 µM (inactive)	> 100 µM (inactive)	> 100 µM (inactive)	> 100 µM (inactive)	> 100 µM (inactive)	> 100 µM (inactive)	> 100 µM (inactive)	> 100 µM (inactive)	> 100 µM (inactive)	> 100 µM (inactive)
